This passage reports IC50 results from patent US5426186A (priority 1993, dated 1995).

Molecules are shown by their SMILES. Where a name gives a salt, the structure may show the parent alone.

The test concerns the target GABAa receptor. As to the kind of experiment: GABAa receptor binding assay, displacement of 3H-RO15-1788 from rat cortical tissue. The conditions noted are these: 0.5 nM 3H-RO15-1788, rat cortical homogenate, 4° C., nonspecific binding with 1.0 μM diazepam. How it is done: The pharmaceutical utility of compounds of this invention are indicated by the following assay for GABAa receptor activity.
Assays are carried out as described in Thomas and Tallman (J. Bio. Chem. 156: 9838-9842, J. Neurosci. 3:433-440, 1983). Rat cortical tissue is dissected and homogenized in 25 volumes (w/v) of 0.05M Tris HCl buffer (pH 7.4 at 4° C.). The tissue homogenate is centrifuged in the cold (4°) at 20,000×g for 20'. The supernatant is decanted and the pellet is rehomogenized in the same volume of buffer and again centrifuged at 20,000×g. The supernatant is decanted and the pellet is frozen at -20° C. overnight. The pellet is then thawed and rehomogenized in 25 volume (original wt/vol) of buffer and the procedure is carried out twice. The pellet is finally resuspended in 50 volumes (w/vol of 0.05M Tris HCl buffer (pH 7.4 at […]).
Incubations contain 100 μl of tissue homogenate, 100 μl of radioligand 0.5 nM (^3 H-RO15-1788 specific activity 80 Ci/mmol), drug or blocker and buffer to a total volume of 500 μl. Incubations are carried for 30 rain at 4° C. then are rapidly filtered through GFB filters to separate free and bound ligand. Filters are washed twice with fresh 0.05M Tris HCl buffer (pH 7.4 at 4° C.) and counted in a liquid scintillation counter 1.0 μM diazepam is added to some tubes to determine nonspecific binding. Data are collected in triplicate determinations, averaged and % inhibition of total specific binding is calculated. Total Specific Binding=Total-Nonspecific. In some cases, the amounts of unlabeled drugs is varied and total displacement curves of binding are carried out. Data are converted to a form for the calculation of IC50 and Hill Coefficient (nH).
As for `Nc1nc2c(c3nc(-c4ccccc4F)cn13)CCCC2` [Compound 33, 5-Amino-2-(2-fluorophenyl)-7,8,9,10-tetrahydro-imidazo[1,2-c]-quinazoline], the IC50 is 100 nM.
As to `Fc1ccccc1-c1cn2c(NCc3ccccc3)nc3c(c2n1)CCCC3` [Compound 31, 5-(N-benzylamino)-2-(2-fluorophenyl)-7,8,9,10-tetrahydro-imidazo[1,2-c]-quinazoline], the IC50 is 2000 nM.
The value for `CCOc1nc2c(c3nc(-c4ccccc4F)cn13)CCCC2` [Compound 39, 5-Ethoxy-2-(2-fluorophenyl)-7,8,9,10-tetrahydro-imidazo[1,2-c]-quinazoline] was 5000 nM.
Next, `CC(C)OC(=O)C1CCc2[nH]c(=O)n3cc(-c4ccccc4F)nc3c2C1` (stereo not shown) [Compound 14, 9-Carboisopropoxy-2-(2-fluorophenyl)-7,8,9,10-tetrahydro-imidazo[1,2-c]-quinazolin-5(6H)-one]: 10 nM; `O=c1[nH]c2c(c3nc(-c4ccccc4F)cn13)CCCC2` [Compound 5, 2-(2-Fluorophenyl)-7,8,9,10-tetrahydro-imidazo[1,2-c]-quinazolin-5(6H)-one]: 7 nM.
Next, `O=c1[nH]c2c(c3nc(-c4ccccc4)cn13)CCCCC2` [Compound 13, 2-Phenyl-8,9,10,11-tetrahydro-7H-cyclohept[g]-imidazo[1,2-c]pyrimidin-5(6H)-one]: 800 nM; `COc1ccc(-c2cn3c(=O)[nH]c4c(c3n2)CCCC4)cc1` [Compound 50, 2-(4-Methoxyphenyl)-7,8,9,10-tetrahydro-imidazo[1,2-c]-quinazolin-5(6H)-one]: 50 nM; `CN(C)CC1CCc2[nH]c(=O)n3cc(-c4ccccc4F)nc3c2C1` (stereo not shown) [Compound 24, 9-(N,N-Dimethylaminomethyl)-2-(2-fluoropenyl)-7,8,9,10-tetrahydro-imidazo[1,2-c]-quinazolin-5(6H)-one monohydrochloride]: 30 nM.
In turn, `O=c1[nH]c2c(c3nc(-c4ccccc4)cn13)CCC2` [Compound 12, 2-Phenyl-8,9-dihydro-7H-cyclopent[g]-imidazo[1,2-c]-pyrimidin-5(6H)-one] displayed an IC50 of 400 nM.
The value for `CN(C)C(=O)C1CCc2[nH]c(=O)n3cc(-c4ccccc4F)nc3c2C1` (stereo not shown) [Compound 18, 9-(N,N-Dimethylcarbamyl)-2-(2-fluorophenyl)-7,8,9,10-tetrahydro-imidazo[1,2-c]-quinazolin-5(6H)-one] was 10 nM; that for `COc1ccc(-c2cn3c(=O)[nH]c4c(c3n2)CCCC4)c(F)c1` [Compound 51, 2-(2-Fluoro-4-methoxyphenyl)-7,8,9,10-tetrahydro-imidazo[1,2-c]-quinazolin-5(6H)-one] was 3 nM.
Compound `CCOC(=O)C1CCc2[nH]c(=O)n3cc(-c4ccccc4F)nc3c2C1` (stereo not shown) [Compound 1, 9-Carboethoxy-2-(2-fluorophenyl)-7,8,9,10-tetrahydro-imidazo[1,2-c]-quinazolin-5(6H)-one] registered a 50% inhibitory concentration (IC50) of 7 nM.
In turn, `CC(C)(C)OC(=O)NC1CCc2[nH]c(=O)n3cc(-c4ccccc4F)nc3c2C1` (stereo not shown) [Compound 28, 9-(t-Butoxycarbonylamino)-2-(2-fluorophenyl)-7,8,9,10-tetrahydro-imidazo[1,2-c]-quinazolin-5(6H)-one] displayed an IC50 of 150 nM.

Broadly, the IC50 is the concentration that gives 50% inhibition. A higher IC50 goes with lower potency.
